Results on 4 compounds are retold here after patent US4661294A, “Biologically active 1-thio derivatives of vitamin D” (The General Hospital Corporation, priority 1985, dated 1987).

Molecules are shown by their SMILES.

The conditions of experiment [1]: literature reports; cited from earlier work.
The next experiment has as its system human fibroblasts. In words: human fibroblast cell proliferation. Format: cell-based. As to conditions: for effect on the inhibitory effect of 1-alpha,25-dihydroxyvitamin D3 on cell generation: added to the 1-alpha,25-dihydroxy compound. How it is done:
FIG. 4 is a graph comparing the effects of ethanol ( ), ethanol plus 1-alpha,25-dihydroxyvitamin D3 ( ), and 1-beta-thio-25-hydroxyvitamin D3 and 1-alpha,25-dihydroxyvitamin D3 ( ) on human fibroblast cell proliferation.
To confirm this, the effects of various compounds on cell proliferation rates were studied, using human fibroblasts to evaluate activity. Human fibroblasts were prepared as described by Clemens, J. Clin. Endocrinol. Met., 56: 197 (1983). In the study, 2.5×10^5 cells, in quadruplicate, were exposed to (a) 95% ethanol; (b) ethanol plus 1-alpha-25-dihydroxyvitamin D3 ( ); or (c) 1-beta-thio-25-hydroxyvitamin D3 plus 1-alpha, 25-dihydroxyvitamin D3 ( ). As may be seen from FIG. 4, the 1-alpha-25-dihydroxy-vitamin D3 inhibited cell generation by about 30% ( ). […] Further, the 1-thio compound alone had no effect on cell generation time (data not shown).

In experiment [2] the target is T1, chick cytosolic receptor (1,25-dihydroxyvitamin receptor site) (Gallus gallus, UniProt O42392).
T1 sequence (O42392 1-451): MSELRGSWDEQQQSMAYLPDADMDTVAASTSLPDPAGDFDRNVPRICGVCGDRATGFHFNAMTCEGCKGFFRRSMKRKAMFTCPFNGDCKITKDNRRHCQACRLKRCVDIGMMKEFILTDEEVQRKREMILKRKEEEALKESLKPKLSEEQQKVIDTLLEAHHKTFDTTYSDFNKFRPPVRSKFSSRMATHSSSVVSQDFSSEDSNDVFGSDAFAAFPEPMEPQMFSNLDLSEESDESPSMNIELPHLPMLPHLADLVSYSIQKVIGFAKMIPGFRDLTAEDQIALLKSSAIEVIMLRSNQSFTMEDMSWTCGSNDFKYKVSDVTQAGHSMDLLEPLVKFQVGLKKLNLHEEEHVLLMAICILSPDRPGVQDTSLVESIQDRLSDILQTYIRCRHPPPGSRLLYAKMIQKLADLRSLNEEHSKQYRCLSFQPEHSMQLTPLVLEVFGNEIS
In words: competition with 3H-1,25-dihydroxyvitamin D3 for receptor site (procedure of Eisman et al.). Type of experiment: binding. The source says:
FIG. 3 is a graph comparing the binding characteristics of 1-alpha,25-dihydroxyvitamin D3 ( ) and 1-beta-thio-25-hydroxyvitamin D3 (Δ) using chick cytosolic receptor.
Thus, the 1-beta-thio-25-hydroxyvitamin D3 can be used as a biologically active analogue of the natural compound.

On to `C=C1/C(=C\C=C2/CCC[C@]3(C)[C@@H]([C@H](C)CCCC(C)(C)F)CC[C@@H]23)C[C@@H](O)C[C@@H]1F` [1-alpha-25-difluoro vitamin D3], for which the biological activity result in experiment [1] is listed as “biologically inert”.

On to `C=C1/C(=C\C=C2/CCC[C@]3(C)[C@@H]([C@H](C)CCCC(C)(C)O)CC[C@@H]23)C[C@@H](O)C[C@@H]1O` [1-alpha-25-dihydroxy-vitamin D3, 1-alpha,25-dihydroxyvitamin D3, reference compound], for which, in the experiment with human fibroblasts (human fibroblasts, 2.5×10^5 cells, FIG. 4), the “inhibition of cell generation” value was “about 30%”.

For `C=C1/C(=C\C=C2/CCC[C@]3(C)[C@@H]([C@H](C)CCCC(C)(C)O)CC[C@@H]23)C[C@@H](O)C[C@H]1S` [1-beta-thio-25-hydroxyvitamin D3, 1-beta-thio-25-hydroxy vitamin D3], the “effect on the inhibitory effect of 1-alpha,25-dihydroxyvitamin D3 on cell generation” value in the experiment with human fibroblasts (human fibroblasts, FIG. 4) is reported as “blocked the inhibitory effect”; in the experiment on human fibroblasts (human fibroblasts, FIG. 4, listed as 1-beta-thio-hydrovitamin D3), “blocks the ability of the 1,25-dihydroxy compound from affecting in vitro fibroblast cell division”. The “effect on cell generation time” value in the experiment with human fibroblasts (compound alone (data not shown)) is “no effect”. Also, the “competition with 3H-1,25-dihydroxyvitamin D3 for the receptor site / recognition by the cytosol receptor site” value in experiment [2] (FIG. 3) is given as “able to compete”; in experiment [2] (FIG. 3, listed as 1-beta-thio-hydrovitamin D3) it was “recognized by the cytosol receptor site”.

Consider `C=C1/C(=C\C=C2/CCC[C@]3(C)[C@@H]([C@H](C)CCCC(C)C)CC[C@@H]23)C[C@@H](O)CC1F` (some centres unmarked) [1-fluoro vitamin D3], for which the biological activity entry in experiment [1] is “possess biological activity”.
